Earlier results in patent USRE37771E1, “Purification of cinnamoyl-C-glycoside chromone” (Univera Pharmaceuticals, Inc., priority 1996, dated 2002).

Columns and labels:
[1] = in vivo assays; details in related U.S. application Ser. No. 08/391,139
[2] = system: epithelial cell lines; conditions: in vitro, details in related U.S. application Ser. No. 08/391,139

For `COc1cc(C)c2c(=O)cc(CC(C)O)oc2c1C1OC(CO)C(O)C(O)C1OC(=O)/C=C/c1ccccc1` [540 compound, 8-C-β-D-[2′-O-(E)-cinnamoyl]glycopyranosyl-2-[(S)-2-hydroxy]propyl-7-methoxy-5-methylchromone], the anti-inflammatory activity [1] is given as “potent anti-inflammatory activity” and the “inhibition of EGF-induced DNA synthesis” value [2] is given as “inhibit EGF-induced DNA synthesis”.
